Key:
[1] = target: 72 kDa type IV collagenase (Homo sapiens, UniProt P08253)
Description: Inhibition of gelatinase A (Matrix metalloprotease-2)

Stromelysin-1 = Stromelysin-1 (Homo sapiens, UniProt P08254)
Description: Inhibition of human stromelysin-1 (Matrix metalloprotease-3)

Mus musculus = assay: Effective dose for inhibition of MMP-3 mediated degradation of radiolabeled transferrin in the mouse pleural cavity (PLCAV) after 60 mpk oral dose of inhibitor.; format: functional
[2] = Percent oral bioavailability was measured in mouse after administration of compound 20 mg/kg perorally; format: ADME, organism-based; details: in vivo
[3] = Volume distribution was measured in mouse after administration of compound 20 mg/kg intravenously; format: ADME, organism-based; design: dose 20 mg/kg, route intravenous; details: in vivo, iv, read-out: Vdss
[4] = Plasma half-life was measured in rabbit after administration of compound 12 mg/kg intravenously; details: iv
[5] = Plasma half-life was measured in mouse after administration of compound 20 mg/kg intravenously; format: ADME, organism-based; design: dose 20 mg/kg, route intravenous; details: iv
[6] = Volume distribution was measured in rat after administration of compound 20 mg/kg intravenously; format: ADME, organism-based; design: dose 20 mg/kg, route intravenous; details: in vivo, iv, read-out: Vdss
[7] = Plasma half-life was measured in rat after administration of compound 20 mg/kg intravenously; format: ADME, organism-based; design: dose 20 mg/kg, route intravenous; details: iv
[8] = Clearance was measured in rat after administration of compound 20 mg/kg intravenously; format: ADME, organism-based; design: dose 20 mg/kg, route intravenous; details: in vivo, iv
[9] = Clearance was measured in rabbit after administration of compound 12 mg/kg intravenously; details: in vivo, iv
[10] = Clearance was measured in mouse after administration of compound 20 mg/kg intravenously; format: ADME, organism-based; design: dose 20 mg/kg, route intravenous; details: in vivo, iv
[11] = Volume distribution was measured in rabbit after administration of compound 12 mg/kg intravenously; details: in vivo, iv, read-out: Vdss
[12] = Percent oral bioavailability was measured in rat after administration of compound 20 mg/kg perorally; format: ADME, organism-based; details: in vivo

72 kDa type IV collagenase, sequence (P08253 whole entry): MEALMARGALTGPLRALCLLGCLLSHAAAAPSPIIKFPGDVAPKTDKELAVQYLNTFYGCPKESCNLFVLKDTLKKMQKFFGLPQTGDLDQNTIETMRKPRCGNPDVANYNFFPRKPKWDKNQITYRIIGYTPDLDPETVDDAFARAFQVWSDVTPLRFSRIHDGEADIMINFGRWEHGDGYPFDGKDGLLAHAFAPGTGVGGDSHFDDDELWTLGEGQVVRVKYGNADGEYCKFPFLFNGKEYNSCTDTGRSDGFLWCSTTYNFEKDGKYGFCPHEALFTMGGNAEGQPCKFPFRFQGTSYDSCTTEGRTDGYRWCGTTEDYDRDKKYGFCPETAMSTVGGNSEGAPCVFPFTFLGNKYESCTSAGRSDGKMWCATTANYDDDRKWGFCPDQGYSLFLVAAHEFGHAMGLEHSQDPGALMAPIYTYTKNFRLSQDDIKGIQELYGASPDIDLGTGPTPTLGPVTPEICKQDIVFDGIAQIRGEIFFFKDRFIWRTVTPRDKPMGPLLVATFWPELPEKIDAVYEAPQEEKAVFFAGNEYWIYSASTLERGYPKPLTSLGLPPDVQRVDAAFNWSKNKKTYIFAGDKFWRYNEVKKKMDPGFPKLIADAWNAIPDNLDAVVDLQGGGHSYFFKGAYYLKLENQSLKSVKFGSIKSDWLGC
Stromelysin-1, sequence (P08254 whole entry): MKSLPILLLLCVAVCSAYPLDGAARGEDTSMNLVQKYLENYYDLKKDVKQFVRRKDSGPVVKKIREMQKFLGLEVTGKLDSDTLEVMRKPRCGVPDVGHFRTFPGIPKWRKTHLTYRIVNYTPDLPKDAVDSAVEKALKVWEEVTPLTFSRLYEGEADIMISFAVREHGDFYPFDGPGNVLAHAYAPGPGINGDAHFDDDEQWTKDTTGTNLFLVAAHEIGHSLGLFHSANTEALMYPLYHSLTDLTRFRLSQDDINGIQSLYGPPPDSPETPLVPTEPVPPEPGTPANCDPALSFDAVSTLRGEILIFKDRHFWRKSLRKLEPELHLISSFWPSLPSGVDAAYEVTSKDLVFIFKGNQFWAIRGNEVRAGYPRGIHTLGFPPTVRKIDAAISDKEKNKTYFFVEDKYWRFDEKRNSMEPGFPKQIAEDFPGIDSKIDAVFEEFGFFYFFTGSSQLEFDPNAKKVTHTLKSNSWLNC

| SMILES | Ki [1] [µM] | Ki (Stromelysin-1) [µM] | also measured |
| --- | --- | --- | --- |
| CCCC[C@@H](C[C@@H](CCc1ccc(-c2ccc(Cl)cc2Cl)cc1)C(=O)N[C@H](C(=O)NC)C(C)(C)C)C(=O)O | 0.1 | 0.012 | – |
| CCCC[C@@H](C[C@@H](CCc1ccc(-c2ccccc2F)cc1)C(=O)N[C@H](C(=O)NC)C(C)(C)C)C(=O)O | 0.061 | 0.011 | – |
| CCCC[C@@H](C[C@@H](CCc1ccc(-c2ccc(F)cc2)cc1)C(=O)N[C@H](C(=O)Nc1ccccc1)C(C)(C)C)C(=O)O | 0.15 | 0.004 | – |
| CC(C)C[C@H](NC(=O)[C@H](CCc1ccc(-c2ccc(F)cc2)cc1)C[C@H](C)C(=O)O)C(=O)Nc1ccccc1 | – | 0.038 | – |
| CCCC[C@@H](C[C@@H](CCc1ccc(-c2ccccc2S(N)(=O)=O)cc1)C(=O)N[C@H](C(=O)NC)C(C)(C)C)C(=O)O | – | 9.4 | – |
| CCCC[C@@H](C[C@@H](CCc1ccccc1)C(=O)N[C@H](C(=O)NC)C(C)(C)C)C(=O)O | 1.5 | 3.8 | – |
| CCCC[C@@H](C[C@@H](CCc1cccc(-c2ccsc2)c1)C(=O)N[C@H](C(=O)NC)C(C)(C)C)C(=O)O | 0.021 | 0.015 | – |
| CCCC[C@@H](C[C@@H](CCc1ccc(-c2cc3ccccc3[nH]2)cc1)C(=O)N[C@H](C(=O)NC)C(C)(C)C)C(=O)O | 0.049 | 0.012 | – |
| CCCC[C@@H](C[C@@H](CCc1ccc(-c2c(C)cccc2C)cc1)C(=O)N[C@H](C(=O)NC)C(C)(C)C)C(=O)O | 1.3 | 1.2 | – |
| CCCC[C@@H](C[C@@H](CCc1ccc(-c2ccccc2S(=O)(=O)NC(C)(C)C)cc1)C(=O)N[C@H](C(=O)NC)C(C)(C)C)C(=O)O | 0.017 | 0.01 | – |
| CCCC[C@@H](C[C@@H](CCc1ccc(-c2ccc(F)cc2)cc1)C(=O)N[C@H](C(=O)Nc1ccncc1)C(C)(C)C)C(=O)O | 0.025 | 0.002 | – |
| CCCC[C@@H](C[C@@H](CCc1ccc(-c2ccc3ccccc3c2)cc1)C(=O)N[C@H](C(=O)NC)C(C)(C)C)C(=O)O | – | 0.12 | – |
| CCCC[C@@H](C[C@@H](CCc1ccc(C2CCCCCC2)cc1)C(=O)N[C@H](C(=O)NC)C(C)(C)C)C(=O)O | 1.9 | 0.095 | – |
| CCCC[C@@H](C[C@@H](CCc1ccc(-c2ccc(-c3ccccc3)cc2)cc1)C(=O)N[C@H](C(=O)NC)C(C)(C)C)C(=O)O | 0.084 | 0.039 | – |
| CC(C)C[C@H](NC(=O)[C@H](CCc1ccc(-c2ccccc2)cc1)C[C@H](C)C(=O)O)C(=O)Nc1ccccc1 | – | 0.082 | – |
| CCCC[C@@H](C[C@@H](CCc1ccc(C2CCCO2)cc1)C(=O)N[C@H](C(=O)NC)C(C)(C)C)C(=O)O (some centres not stated) | 0.81 | 1.4 | – |

| SMILES | Ki [1] [µM] | Ki (Stromelysin-1) [µM] | also measured |
| --- | --- | --- | --- |
| CCCC[C@@H](C[C@@H](CCc1ccc(Cc2ccccc2)cc1)C(=O)N[C@H](C(=O)Nc1ccccc1)C(C)(C)C)C(=O)O | 0.016 | 1.4 | – |
| CCCc1ccc(CC[C@H](C[C@H](C)C(=O)O)C(=O)N[C@@H](CC(C)C)C(=O)Nc2ccccc2)cc1 | – | – | ED50 (Mus musculus): 32 mg/kg |
| CCCc1ccc(CC[C@H](N[C@H](C)C(=O)O)C(=O)N[C@@H](CC(C)C)C(=O)Nc2ccccc2)cc1 | – | – | ED50 (Mus musculus): 65 mg/kg |
| CCCC[C@@H](C[C@@H](CCc1cccc(-c2ccccc2)c1)C(=O)N[C@H](C(=O)NC)C(C)(C)C)C(=O)O | 2.4 | 1.5 | – |
| CCCC[C@@H](C[C@@H](CCc1ccc(/C=C/c2ccccc2)cc1)C(=O)N[C@H](C(=O)NC)C(C)(C)C)C(=O)O | 0.76 | 0.065 | – |
| CCCC[C@@H](C[C@@H](CCc1ccc(OCc2ccccc2)cc1)C(=O)N[C@H](C(=O)NC)C(C)(C)C)C(=O)O | 0.21 | 0.074 | – |
| CCCC[C@@H](C[C@@H](CCc1ccc(CCC)cc1)C(=O)N[C@H](C(=O)NC)C(C)(C)C)C(=O)O | 0.047 | 0.14 | – |
| CCCC[C@@H](C[C@@H](CCc1ccc(CCc2ccccc2)cc1)C(=O)N[C@H](C(=O)NC)C(C)(C)C)C(=O)O | 0.38 | 0.049 | – |
| CCCC[C@@H](C[C@@H](CCc1ccc(-c2ccc(F)c(Cl)c2)cc1)C(=O)N[C@H](C(=O)NC)C(C)(C)C)C(=O)O | 0.08 | 0.019 | – |
| CCCC[C@@H](C[C@@H](CCc1ccc(-c2cccc3ccccc23)cc1)C(=O)N[C@H](C(=O)NC)C(C)(C)C)C(=O)O | 6.9 | 2 | – |
| CCCC[C@@H](C[C@@H](CCc1ccc(-c2cc(Cl)cc(Cl)c2)cc1)C(=O)N[C@H](C(=O)NC)C(C)(C)C)C(=O)O | 1.6 | 1.5 | – |
| CCCC[C@@H](C[C@@H](CCc1ccc(CCC)cc1)C(=O)N[C@H](C(=O)Nc1ccncc1)C(C)(C)C)C(=O)O | 0.022 | 0.011 | – |
| CCCC[C@@H](C[C@@H](CCc1ccc(-c2cccc(N)c2)cc1)C(=O)N[C@H](C(=O)Nc1ccccc1)C(C)(C)C)C(=O)O | 0.28 | 0.027 | – |
| CCCC[C@@H](C[C@@H](CCc1ccc(-c2cccc(C(F)(F)F)c2)cc1)C(=O)N[C@H](C(=O)NC)C(C)(C)C)C(=O)O | 3.6 | 1.1 | – |
| CC(C)C[C@H](NC(=O)[C@H](CCc1ccccc1)N[C@H](C)C(=O)O)C(=O)Nc1ccccc1 [L-696418] | – | – | ED50 (Mus musculus): > 100 mg/kg |

Now from value to molecule, other results behind:

| Ki [1] [µM] | Ki (Stromelysin-1) [µM] | SMILES | also measured |
| --- | --- | --- | --- |
| 0.03 | 0.052 | CCCC[C@@H](C[C@@H](CCc1ccc(-c2ccc([S+](C)[O-])cc2)cc1)C(=O)N[C@H](C(=O)NC)C(C)(C)C)C(=O)O (some centres not stated) | – |
| 0.094 | 0.025 | CCCC[C@@H](C[C@@H](CCc1ccc(-c2ccc(-c3ncc[nH]3)cc2)cc1)C(=O)N[C@H](C(=O)NC)C(C)(C)C)C(=O)O | – |
| 0.048 | 0.021 | CCCC[C@@H](C[C@@H](CCc1ccc(-c2cccc(F)c2)cc1)C(=O)N[C@H](C(=O)NC)C(C)(C)C)C(=O)O | – |
| 0.016 | 0.015 | CCCC[C@@H](C[C@@H](CCc1ccc(-c2ccc(C=O)cc2)cc1)C(=O)N[C@H](C(=O)NC)C(C)(C)C)C(=O)O | – |
| 0.013 | 0.005 | CCCC[C@@H](C[C@@H](CCc1ccc(-c2ccc(SC)cc2)cc1)C(=O)N[C@H](C(=O)NC)C(C)(C)C)C(=O)O | – |
| 0.039 | 0.037 | CCCC[C@@H](C[C@@H](CCc1ccc(-c2ccc(C(F)(F)F)cc2)cc1)C(=O)N[C@H](C(=O)NC)C(C)(C)C)C(=O)O | – |
| 0.58 | 0.69 | CCCC[C@@H](C[C@@H](CCc1ccc(-c2ccc(C(=O)O)cc2)cc1)C(=O)N[C@H](C(=O)NC)C(C)(C)C)C(=O)O | – |
| 0.014 | 0.009 | CCCC[C@@H](C[C@@H](CCc1ccc(-c2ccc(C#N)cc2)cc1)C(=O)N[C@H](C(=O)NC)C(C)(C)C)C(=O)O | – |
| 0.017 | 0.011 | CCCC[C@@H](C[C@@H](CCc1ccc(-c2ccc(Br)cc2)cc1)C(=O)N[C@H](C(=O)NC)C(C)(C)C)C(=O)O | – |
| 0.019 | 0.021 | CCCC[C@@H](C[C@@H](CCc1ccc(-c2ccc(S(C)(=O)=O)cc2)cc1)C(=O)N[C@H](C(=O)NC)C(C)(C)C)C(=O)O | – |
| 0.017 | 0.01 | CCCC[C@@H](C[C@@H](CCc1ccc(-c2ccc(F)cc2)cc1)C(=O)N[C@H](C(=O)NC)C(C)(C)C)C(=O)O | bioavailability [2]: 78%; Vd [3]: 0.2 L/kg; half-life [4]: 0.9 h; half-life [5]: 2.7 h; Vd [6]: 0.32 L/kg; half-life [7]: 4.4 h; clearance [8]: 0.078 L/h/kg; clearance [9]: 0.456 L/h/kg; clearance [10]: 0.066 L/h/kg; Vd [11]: 0.2 L/kg; bioavailability [12]: 60% |
| 0.038 | 0.024 | CCCC[C@@H](C[C@@H](CCc1ccc(-c2ccc(C(N)=O)cc2)cc1)C(=O)N[C@H](C(=O)NC)C(C)(C)C)C(=O)O | – |
| 0.05 | 0.04 | CCCC[C@@H](C[C@@H](CCc1ccc(-c2ccc(C(=O)N(C)C)cc2)cc1)C(=O)N[C@H](C(=O)NC)C(C)(C)C)C(=O)O | – |
| 0.032 | 0.031 | CCCC[C@@H](C[C@@H](CCc1ccc(-c2ccc(C(=O)OC)cc2)cc1)C(=O)N[C@H](C(=O)NC)C(C)(C)C)C(=O)O | – |
| 0.034 | 0.049 | CCCC[C@@H](C[C@@H](CCc1ccc(-c2ccc(C(=O)NC)cc2)cc1)C(=O)N[C@H](C(=O)NC)C(C)(C)C)C(=O)O | – |
| 0.025 | 0.013 | CCCC[C@@H](C[C@@H](CCc1ccc(-c2ccc(Cl)cc2)cc1)C(=O)N[C@H](C(=O)NC)C(C)(C)C)C(=O)O | – |
| 1.8 | 0.35 | CCCC[C@@H](C[C@@H](CCc1ccc(-c2ccc(-c3nnn[nH]3)cc2)cc1)C(=O)N[C@H](C(=O)NC)C(C)(C)C)C(=O)O | – |
| 0.021 | 0.013 | CCCC[C@@H](C[C@@H](CCc1ccc(-c2ccc(OC)cc2)cc1)C(=O)N[C@H](C(=O)NC)C(C)(C)C)C(=O)O | – |
